Assay results as given in US20260258084A1, “New Peptides as Selective IL-23 Receptor Antagonists” (Sanofi, priority 2022, published 2026).
Positions of bridges follow the written chain, without caps; N, C: chain ends. Non-standard residues stand in square brackets, D forms with d. Residues, ends and D or L forms follow the SMILES beside them. *: point of attachment. Trp(7-Me) = Cc1cccc2c(C[C@H](N)C(=O)O)c[nH]c12; 2Nal = N[C@@H](Cc1ccc2ccccc2c1)C(=O)O; αMeL = CC(C)C[C@](C)(N)C(=O)O; Me2NCH2CH2 = CN(C)CC*; Aib = CC(C)(N)C(=O)O; Ahx = NCCCCCC(=O)O; Ava = NCCCCC(=O)O

Columns and labels:
[1] = molecular target: T1, human interleukin-23 receptor (recombinant human IL-23R-Fc chimera) (Homo sapiens, UniProt Q5VWK5); assay: Human ELISA IL23/IL23R (assay for specific human IL23R antagonists); type: binding; settings: Table 10; read-out: Human ELISA IL23/IL23R IC50
T1 construct: Fc (IgG Fc fusion)
Procedure, shortened: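 Competition format: peptide dilutions compete for IL23R-Fc chimera (0.1 μg/ml final, 60 min, room temperature) binding to immobilized human IL23 coated at […] overnight at 4 °C. Read-out is fluorogenic HRP signal from goat anti-hu-IgG1 detecting captured receptor.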

[2] = test system: IL-23 induced STAT3 signaling in HEK-Blue™ IL-23 cells; assay: IL-23 induced STAT3 signaling in HEK-Blue IL-23 cells (SEAP reporter); type: cell-based; settings: human IL23 0.25 ng/ml, read-out: pSTAT3
Procedure, shortened: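 Secreted SEAP, read at OD 620-655 nm after 45 min QUANTI-Blue development, reports STAT3 activation. Beforehand, cells were exposed to peptide dilutions for 60 min at 37 °C and then to 0.25 ng/ml final human IL-23 overnight, at 10,000 cells/well.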

Pepsin = test system: T2, Pepsin; assay: Protease stability in simulated gastric fluid (Pepsin-SGF, FaSSGF); type: in vitro ADME; settings: simulated gastric fluid with pepsin (Pepsin-SGF), 60 min, 1 μM peptide, 37° C., read-out: FaSSGF 60 (min), remaining percent of peptide
T2 construct: purchased Merck Millipore
Description: (§1) Studies were carried out in simulated intestinal fluid (SIF) and simulated gastric fluid (SGF) to evaluate gastric stability of the peptide compounds disclosed herein.
For clarification the term “Pepsin-SGF” refers to a solution of simulated gastric fluid containing pepsin whereas “SGF media” refers to a solution of simulated gastric fluid without pepsin. Pepsin-SGF was prepared by dissolving 320 mg Pepsin (Merck Millipore) in 100 mL SGF media concentrate (ProSense).
(§2) Peptides were first dissolved at 1 mM stock concentration in 0.01 HCl (+/−10% of DMSO) and were than diluted further with water to a stock concentration of 20 μM. Final peptide concentration in the incubation was 1 μM.
(§3) To 76 μL of the Pepsin-SGF buffer, 4 μL of the 20 μM peptide stock solution was added and incubated at 37° C. At each timepoint (0, 60, 120 and 240 minutes) the reaction was quenched with addition of 80 μL Ethanol (0.1% HCOOH). The samples were centrifuged for 20 minutes and an aliquot of the supernatant 100 μL were transferred to a LoBind-MTP plate and analyzed by LCMS/MS. The peak area response was calculated at each time point for each test compound. As internal reference, the peak area response of the same test compound at TO was calculated. The percent remaining at each timepoint was calculated based on the peak area response ratio of the test compound at TO. Time 0 was set to 100%, and all later timepoints were calculated relative to time 0.

Pancreatin = assay: Protease stability in simulated intestinal fluid (Pancreatin-SIF, FaSSIF); type: in vitro ADME; settings: 1 μM peptide, 37° C.; for remaining at 1 h, 1 µM: 60 min, read-out: FaSSIF 60 (min), remaining percent of peptide; for remaining at 2 h, 1 µM: 120 min, read-out: FaSSIF 120 (min), remaining percent of peptide; for remaining at 4 h, 1 µM: 240 min, read-out: FaSSIF 240 (min), remaining percent of peptide
Description: as §1
Similarly, the term “Pancreatin-SIF” refers to a solution of simulated intestinal fluid containing pancreatin whereas “SIF-media” refers to a solution of simulated intestinal fluid without pancreatin.
Pancreatin-SIF was prepared by dissolving 1 mg Pancreatin (MP Biomedicals) in 10 mL SIF media concentrate (ProSense).
as §2
as §3, with “µM” for “μM”

IC50 [1] [nM] | remaining at 1 h, 1 µM (Pepsin) [%] | remaining at 1 h, 1 µM (Pancreatin) [%] | remaining at 2 h, 1 µM (Pancreatin) [%] | remaining at 4 h, 1 µM (Pancreatin) [%] | Structure (SMILES) | IC50 [2] [nM]
0.7 | 1 | 76 | 64 | 38 | COc1ccc(C[C@@H]2NC(=O)[C@@H]3CSSC[C@H](NC(=O)CCCCCNC(=O)C[C@@H](C(=O)N[C@@H](CC(N)=O)C(=O)N[C@@H](CC(N)=O)C(N)=O)NC(=O)C(C)(C)NC(=O)[C@H](Cc4ccc5ccccc5c4)NC2=O)C(=O)N[C@@H](CC(N)=O)C(=O)N[C@@H]([C@@H](C)O)C(=O)N[C@@H](Cc2c[nH]c4ccccc24)C(=O)N[C@@H](CCC(N)=O)C(=O)N3)cc1 [compound 3] ([Ahx]CNTWQCY(Me)[2Nal][Aib]DNN-NH2; disulfide 2-7; lactam N-11) | 17.2
0.5 | 95 | 85 | 81 | 72 | CC(=O)NCCCC[C@@H]1NC(=O)[C@H](Cc2c[nH]c3c(C)cccc23)NC(=O)[C@H]([C@@H](C)O)NC(=O)[C@H](CC(N)=O)NC(=O)[C@@H]2CSSC[C@H](NC1=O)C(=O)N[C@@H](Cc1ccc(OCCN(C)C)cc1)C(=O)N[C@@H](Cc1ccc3ccccc3c1)C(=O)NC(C)(C)C(=O)N[C@H](C(=O)N[C@@H](CC(N)=O)C(=O)N[C@@H](Cc1c[nH]cn1)C(N)=O)CCC(=O)NCCCCC(=O)N2 [compound 20] ([Ava]CNT[Trp(7-Me)]K(Ac)CY(Me2NCH2CH2)[2Nal][Aib]ENH-NH2; disulfide 2-7; lactam N-11) | 3.12
0.49 | 60 | 82 | 79 | 79 | CC(=O)NCCCC[C@@H]1NC(=O)[C@H](Cc2c[nH]c3c(C)cccc23)NC(=O)[C@H]([C@@H](C)O)NC(=O)[C@H](CC(N)=O)NC(=O)[C@@H]2CSSC[C@H](NC1=O)C(=O)N[C@@H](Cc1ccc(OCCN(C)C)cc1)C(=O)N[C@@H](Cc1ccc3ccccc3c1)C(=O)N[C@@](C)(CC(C)C)C(=O)N[C@H](C(=O)N[C@@H](CC(N)=O)C(=O)N[C@@H](Cc1c[nH]cn1)C(N)=O)CCC(=O)NCCCCC(=O)N2 [compound 22] ([Ava]CNT[Trp(7-Me)]K(Ac)CY(Me2NCH2CH2)[2Nal][αMeL]ENH-NH2; disulfide 2-7; lactam N-11) | 1.37
